Results on two compounds are retold here after patent US11666056B2, “Methods and compositions for control of arthropod pests” (GREENLIGHT BIOSCIENCES, INC., priority 2019, dated 2023).

The conditions of series [1]: citric buffer (pH 5.3).
Series [2] can be described thus: Measured pH of preservative working solutions and of tested formulations. Format: physicochemical. Here is the method:
Separate working solutions of sodium benzoate and potassium sorbate are prepared in citric buffer (pH 5.3) and pH is measured as shown in Table 3.
Five formulations (Table 7) using the citric buffer of Example 1A and the preservatives of Example 1B were tested to determine the stability of the trigger nucleic acid molecule (SEQ ID NO: 1) in a) only sucrose (control); b) sucrose with preservatives; c) sucrose and citric buffer; d) sucrose with equal amounts of each preservative in citric buffer; and e) sucrose with sodium benzoate to potassium sorbate in a 1:0.5 ratio in citric buffer.
Four additional formulations were created to test the ability of sodium benzoate alone to protect a dsRNA from degradation. Sodium benzoate was prepared in a solution with a pH of 4.5.

Where [3] appears, read: preservative 50 mg/mL in citric buffer (pH 5.3).

With `C/C=C/C=C/C(=O)[O-].[K+]` [Potassium Sorbate], in series [1], the “solubility in citric buffer” value is given as “low solubility”. The pH in series [2] (setting [3]) was found to be 6.13; in series [2] (preservative 100 mg/mL in ddH2O) it was 8.8.
For the compound `O=C([O-])c1ccccc1.[Na+]` [Sodium Benzoate], the pH is reported as 5.47 in series [2] (setting [3]) and 5.7 in series [2] (preservative 100 mg/mL in citric buffer).
